Results published in patent publication US10030020B2, “Spirocycle compounds and methods of making and using same” (Abide Therapeutics, Inc., priority 2016, dated 2018).

What was measured:
Type in all cases: biochemical
MAGL = MAGL (Mus musculus (Mouse), UniProt O35678); experiment: In vitro competitive activity-based protein profiling (mouse brain membrane fraction or cell lysates), MAGL band; settings: mouse proteome; for inhibition at 1 µM: read-out: MAGL % Inh 1 μM (mouse); for IC50: competitive ABPP
Protocol: (§1) In Vitro Competitive Activity-Based Protein Profiling.
(§2) Proteomes (mouse brain membrane fraction or cell lysates) (50 μL, 1.0 mg/mL total protein concentration) were preincubated with varying concentrations of inhibitors at 37° C. After 30 min, FP—Rh (1.0 μL, 50 μM in DMSO) was added and the mixture was incubated for another 30 min at 37° C. Reactions were quenched with SDS loading buffer (50 μL-4×) and run on SDS-PAGE.

ABHD6 = ABHD6 (Mus musculus (Mouse), UniProt Q8R2Y0); experiment: In vitro competitive activity-based protein profiling (mouse brain membrane fraction or cell lysates), ABHD6 band; settings: mouse proteome; for inhibition at 1 µM: read-out: ABHD6 % Inh 1 μM (mouse); for IC50: competitive ABPP
Protocol: as §1
as §2, with “SDS-PAGE. Following gel imaging, serine hydrolase activity was determined by measuring fluorescent intensity of gel bands corresponding to MAGL, ABHD6 and FAAH using ImageJ 1.43u software.” for “SDS-PAGE.”

FAAH = FAAH (Mus musculus (Mouse), UniProt O08914); experiment: In vitro competitive activity-based protein profiling (mouse brain membrane fraction or cell lysates), FAAH band; settings: mouse proteome; for inhibition at 1 µM: read-out: FAAH % Inh 1 μM (mouse); for IC50: competitive ABPP
Protocol: as §1
as §2, with “SDS-PAGE. Following gel imaging, serine hydrolase activity was determined by measuring fluorescent intensity of gel bands corresponding to MAGL, ABHD6 and FAAH using ImageJ 1.43u software.” for “SDS-PAGE.”

FAAH, sequence (O08914 whole entry): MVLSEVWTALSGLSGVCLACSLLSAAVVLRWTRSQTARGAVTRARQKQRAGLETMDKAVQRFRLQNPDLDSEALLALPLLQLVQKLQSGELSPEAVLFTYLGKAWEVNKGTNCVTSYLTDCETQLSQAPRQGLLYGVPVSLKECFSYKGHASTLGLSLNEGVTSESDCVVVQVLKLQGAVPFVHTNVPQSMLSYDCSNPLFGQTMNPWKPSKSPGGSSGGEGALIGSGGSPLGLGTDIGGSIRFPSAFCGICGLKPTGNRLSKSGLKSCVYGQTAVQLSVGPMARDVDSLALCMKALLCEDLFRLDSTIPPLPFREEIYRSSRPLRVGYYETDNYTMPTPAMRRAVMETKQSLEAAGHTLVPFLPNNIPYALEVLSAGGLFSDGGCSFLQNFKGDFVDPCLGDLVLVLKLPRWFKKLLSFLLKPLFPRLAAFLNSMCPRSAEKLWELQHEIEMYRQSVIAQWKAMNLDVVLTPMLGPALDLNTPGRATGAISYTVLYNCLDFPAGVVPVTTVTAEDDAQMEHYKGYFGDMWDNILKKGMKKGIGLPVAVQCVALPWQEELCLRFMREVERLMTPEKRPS
MAGL, sequence (O35678 whole entry): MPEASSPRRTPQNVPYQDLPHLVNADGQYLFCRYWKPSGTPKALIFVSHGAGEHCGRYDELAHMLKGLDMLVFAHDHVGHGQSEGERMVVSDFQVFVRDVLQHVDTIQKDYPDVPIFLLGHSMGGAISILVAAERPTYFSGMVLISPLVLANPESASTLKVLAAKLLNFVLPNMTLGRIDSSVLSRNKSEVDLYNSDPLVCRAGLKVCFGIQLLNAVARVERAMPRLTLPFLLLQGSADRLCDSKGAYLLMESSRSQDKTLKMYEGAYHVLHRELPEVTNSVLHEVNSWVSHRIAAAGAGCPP
ABHD6, sequence (Q8R2Y0 whole entry): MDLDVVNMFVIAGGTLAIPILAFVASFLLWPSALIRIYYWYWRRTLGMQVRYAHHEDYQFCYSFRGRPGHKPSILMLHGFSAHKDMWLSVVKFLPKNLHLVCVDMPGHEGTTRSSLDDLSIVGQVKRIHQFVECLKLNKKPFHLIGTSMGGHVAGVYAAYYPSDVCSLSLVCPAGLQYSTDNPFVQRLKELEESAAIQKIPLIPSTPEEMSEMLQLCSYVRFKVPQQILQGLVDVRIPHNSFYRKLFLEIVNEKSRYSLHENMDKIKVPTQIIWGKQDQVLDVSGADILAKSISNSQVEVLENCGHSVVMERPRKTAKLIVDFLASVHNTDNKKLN

Row | inhibition at 1 µM (MAGL) [%] | IC50 (MAGL) [nM] | inhibition at 1 µM (ABHD6) [%] | IC50 (ABHD6) [nM] | inhibition at 1 µM (FAAH) [%] | IC50 (FAAH) [nM] | Structure (SMILES)
1 | > 75 | < 100 | < 25 | > 1000 | < 25 | > 1000 | O=C(OC(C(F)(F)F)C(F)(F)F)N1CCC2(CCCN2Cc2cccc(N3CC4COCC4C3)c2Cl)CC1 (centres unmarked) [Example 112, 1,1,1,3,3,3-Hexafluoropropan-2-yl 1-(2-chloro-3-(tetrahydro-1H-furo[3,4-c]pyrrol-5(3H)-yl)benzyl)-1,8-diazaspiro[4.5]decane-8-carboxylate]
2 | > 75 | < 100 | < 25 | > 1000 | < 25 | > 1000 | CS(=O)(=O)N1CCN(c2cccc(CN3CCCC34CCN(C(=O)OC(C(F)(F)F)C(F)(F)F)CC4)c2Cl)CC1 [Example 113, 1,1,1,3,3,3-Hexafluoropropan-2-yl 1-(2-chloro-3-(4-(methylsulfonyl)piperazin-1-yl)benzyl)-1,8-diazaspiro[4.5]decane-8-carboxylate]
3 | > 75 | < 100 | 25 to 75 | > 1000 | < 25 | > 1000 | CC(=O)N1CCN(c2cccc(CN3CCCC34CCN(C(=O)OC(C(F)(F)F)C(F)(F)F)CC4)c2Cl)CC1 [Example 114, 1,1,1,3,3,3-Hexafluoropropan-2-yl 1-(3-(4-acetylpiperazin-1-yl)-2-chlorobenzyl)-1,8-diazaspiro[4.5]decane-8-carboxylate]
4 | > 75 | – | < 25 | > 1000 | < 25 | > 1000 | O=C(OC(C(F)(F)F)C(F)(F)F)N1CCC2(CCCN2Cc2cccc(N3CCN(C4CC4)CC3)c2Cl)CC1 [Example 115, 1,1,1,3,3,3-Hexafluoropropan-2-yl 1-(2-chloro-3-(4-cyclopropylpiperazin-1-yl)benzyl)-1,8-diazaspiro[4.5]decane-8-carboxylate]
5 | > 75 | < 100 | < 25 | > 1000 | < 25 | > 1000 | CCN1CCN(c2cccc(CN3CCCC34CCN(C(=O)OC(C(F)(F)F)C(F)(F)F)CC4)c2Cl)CC1 [Example 116, 1,1,1,3,3,3-Hexafluoropropan-2-yl 1-(2-chloro-3-(4-ethylpiperazin-1-yl)benzyl)-1,8-diazaspiro[4.5]decane-8-carboxylate]
6 | > 75 | – | < 25 | > 1000 | < 25 | > 1000 | O=C(OC(C(F)(F)F)C(F)(F)F)N1CCC2(CCCN2Cc2cccc(N3CCC4(CCOCC4)C3)c2Cl)CC1 [Example 117, 1,1,1,3,3,3-Hexafluoropropan-2-yl 1-(2-chloro-3-(8-oxa-2-azaspiro[4.5]decan-2-yl)benzyl)-1,8-diazaspiro[4.5]decane-8-carboxylate]
7 | > 75 | < 100 | 25 to 75 | > 1000 | < 25 | > 1000 | O=C(OC(C(F)(F)F)C(F)(F)F)N1CCC2(CCCN2Cc2ccc3c(c2)OCCO3)CC1 [Example 126, 1,1,1,3,3,3-Hexafluoropropan-2-yl 1-(2,3-dihydro-1,4-benzodioxin-6-ylmethyl)-1,8-diazaspiro[4.5]decane-8-carboxylate]
8 | > 75 | – | 25 to 75 | > 1000 | < 25 | > 1000 | O=C(OC(C(F)(F)F)C(F)(F)F)N1CCC2(CCCN2Cc2ccc(N3CCOCC3)c(Cl)c2)CC1 [Example 127, 1,1,1,3,3,3-Hexafluoropropan-2-yl 1-(3-chloro-4-morpholinobenzyl)-1,8-diazaspiro[4.5]decane-8-carboxylate]
9 | > 75 | < 100 | < 25 | > 1000 | < 25 | > 1000 | O=C(OC(C(F)(F)F)C(F)(F)F)N1CCC2(CCCN2Cc2ccc(Cl)c(N3CCOCC3)c2)CC1 [Example 131, 1,1,1,3,3,3-Hexafluoropropan-2-yl 1-(4-chloro-3-morpholinobenzyl)-1,8-diazaspiro[4.5]decane-8-carboxylate]
10 | > 75 | < 100 | ≥ 75 | 100 to 1000 | < 25 | > 1000 | Cc1cc(CN2CCC3(CCN(C(=O)OC(C(F)(F)F)C(F)(F)F)CC3)C2)ccc1Cl [Example 135, 1,1,1,3,3,3-Hexafluoropropan-2-yl 2-(4-chloro-3-methylbenzyl)-2,8-diazaspiro[4.5]decane-8-carboxylate]
11 | > 75 | 100 to 1000 | ≥ 75 | 100 to 1000 | < 25 | > 1000 | Cc1ccc(CN2CCC3(CCN(C(=O)OC(C(F)(F)F)C(F)(F)F)CC3)C2)cc1Cl [Example 136, 1,1,1,3,3,3-Hexafluoropropan-2-yl 2-(3-chloro-4-methylbenzyl)-2,8-diazaspiro[4.5]decane-8-carboxylate]
12 | > 75 | 100 to 1000 | ≥ 75 | < 100 | < 25 | > 1000 | O=C(OC(C(F)(F)F)C(F)(F)F)N1CCC2(CCN(Cc3ccc4c(c3)OCCO4)C2)CC1 [Example 137, 1,1,1,3,3,3-Hexafluoropropan-2-yl 2-((2,3-dihydrobenzo[b][1,4]dioxin-6-yl)methyl)-2,8-diazaspiro[4.5]decane-8-carboxylate]
13 | > 75 | – | ≥ 75 | < 100 | < 25 | > 1000 | O=C(OC(C(F)(F)F)C(F)(F)F)N1CCC2(CCN(Cc3ccc(N4CCOCC4)c(Cl)c3)C2)CC1 [Example 138, 1,1,1,3,3,3-Hexafluoropropan-2-yl 2-(3-chloro-4-morpholinobenzyl)-2,8-diazaspiro[4.5]decane-8-carboxylate]
14 | > 75 | 100 to 1000 | ≥ 75 | 100 to 1000 | < 25 | > 1000 | O=C(OC(C(F)(F)F)C(F)(F)F)N1CCC2(CCN(Cc3ccc(N4CCCC4)c(Cl)c3)C2)CC1 [Example 139, 1,1,1,3,3,3-Hexafluoropropan-2-yl 2-(3-chloro-4-(pyrrolidin-1-yl)benzyl)-2,8-diazaspiro[4.5]decane-8-carboxylate]
15 | > 75 | < 100 | ≥ 75 | 100 to 1000 | < 25 | > 1000 | O=C(OC(C(F)(F)F)C(F)(F)F)N1CCC2(CCN(Cc3ccc(N4CCOCC4)c(C(F)(F)F)c3)C2)CC1 [Example 140, 1,1,1,3,3,3-Hexafluoropropan-2-yl 2-(4-morpholino-3-(trifluoromethyl)benzyl)-2,8-diazaspiro[4.5]decane-8-carboxylate]
16 | > 75 | 100 to 1000 | ≥ 75 | 100 to 1000 | < 25 | > 1000 | O=C(OC(C(F)(F)F)C(F)(F)F)N1CCC2(CCN(Cc3ccc(N4CCCC4)c(C(F)(F)F)c3)C2)CC1 [Example 141, 1,1,1,3,3,3-Hexafluoropropan-2-yl 2-(4-(pyrrolidin-1-yl)-3-(trifluoromethyl)benzyl)-2,8-diazaspiro[4.5]decane-8-carboxylate]
17 | > 75 | 100 to 1000 | < 25 | > 1000 | < 25 | > 1000 | CC(=O)N1CCCc2cccc(CN3CCCC34CCN(C(=O)OC(C(F)(F)F)C(F)(F)F)CC4)c21 [Example 142, 1,1,1,3,3,3-Hexafluoropropan-2-yl 1-((1-acetyl-1,2,3,4-tetrahydroquinolin-8-yl)methyl)-1,8-diazaspiro[4.5]decane-8-carboxylate]
18 | > 75 | < 100 | < 25 | > 1000 | < 25 | > 1000 | CS(=O)(=O)N1CCCc2cccc(CN3CCCC34CCN(C(=O)OC(C(F)(F)F)C(F)(F)F)CC4)c21 [Example 143, 1,1,1,3,3,3-Hexafluoropropan-2-yl 1-((1-methanesulfonyl-1,2,3,4-tetrahydroquinolin-8-yl)methyl)-1,8-diazaspiro[4.5]decane-8-carboxylate]
19 | > 75 | 100 to 1000 | 25 to 75 | > 1000 | < 25 | > 1000 | CCN1CCc2cccc(CN3CCCC34CCN(C(=O)OC(C(F)(F)F)C(F)(F)F)CC4)c2C1 [Example 144, 1,1,1,3,3,3-Hexafluoropropan-2-yl 1-((2-ethyl-1,2,3,4-tetrahydroisoquinolin-8-yl)methyl)-1,8-diazaspiro[4.5]decane-8-carboxylate]
20 | > 75 | < 100 | < 25 | > 1000 | < 25 | > 1000 | CC(=O)N1CCc2cccc(CN3CCCC34CCN(C(=O)OC(C(F)(F)F)C(F)(F)F)CC4)c2C1 [Example 145, 1,1,1,3,3,3-Hexafluoropropan-2-yl 1-((2-acetyl-1,2,3,4-tetrahydroisoquinolin-8-yl)methyl)-1,8-diazaspiro[4.5]decane-8-carboxylate]
